Values of other authors, collected in US20140030308A1, “IMPLANTS AND PROCEDURES FOR PROMOTING AUTOLOGOUS STEM CELL GROWTH” (priority 2012, published 2014).

Settings: general statement used to time administration before stent placement

half-life: about 8 hours
SMILES: c1cc(CN2CCCNCCNCCCNCC2)ccc1CN1CCCNCCNCCCNCC1 [Prelixafor, 1,1′-[1,4-phenylenebis(methylene)]bis-1,4,8,11-tetraazacyclotetradecane]
